# US20260365670A1, “EGFR INHIBITORS AND USES THEREOF” (DIZAL (JIANGSU) PHARMACEUTICAL CO., LTD., priority 2022, published 2026)
# Where two headings read alike, the source gives them in different places.
# Key:
# [1] = molecular target: T1, EGFR wild type (Homo sapiens, UniProt P00533); assay: Inhibition of EGFR wild type biochemical enzymatic activity (HTRF); settings: EGFR WT, 1 mM ATP, 1 h, room temperature, read-out: IC50 (nM) @WT
# T1 construct: purchased Carna Bio
# Method in brief: (§1)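 Each enzyme was first added to plates holding compound. The reaction was then started with ATP (1 mM) and peptide substrate (1 μM). It was stopped after 1 h at room temperature with EDTA detection reagents and read at 615/665 nm to derive IC50s.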
# [2] = molecular target: T2, EGFR L858R (Homo sapiens, UniProt P00533, L858R); assay: Inhibition of EGFR L858R biochemical enzymatic activity (HTRF); settings: 1 mM ATP, 1 h, room temperature, read-out: IC50 (nM) @L858R
# T2 construct: purchased Carna Bio
# T2 sequence (P00533 25-1210 L858R): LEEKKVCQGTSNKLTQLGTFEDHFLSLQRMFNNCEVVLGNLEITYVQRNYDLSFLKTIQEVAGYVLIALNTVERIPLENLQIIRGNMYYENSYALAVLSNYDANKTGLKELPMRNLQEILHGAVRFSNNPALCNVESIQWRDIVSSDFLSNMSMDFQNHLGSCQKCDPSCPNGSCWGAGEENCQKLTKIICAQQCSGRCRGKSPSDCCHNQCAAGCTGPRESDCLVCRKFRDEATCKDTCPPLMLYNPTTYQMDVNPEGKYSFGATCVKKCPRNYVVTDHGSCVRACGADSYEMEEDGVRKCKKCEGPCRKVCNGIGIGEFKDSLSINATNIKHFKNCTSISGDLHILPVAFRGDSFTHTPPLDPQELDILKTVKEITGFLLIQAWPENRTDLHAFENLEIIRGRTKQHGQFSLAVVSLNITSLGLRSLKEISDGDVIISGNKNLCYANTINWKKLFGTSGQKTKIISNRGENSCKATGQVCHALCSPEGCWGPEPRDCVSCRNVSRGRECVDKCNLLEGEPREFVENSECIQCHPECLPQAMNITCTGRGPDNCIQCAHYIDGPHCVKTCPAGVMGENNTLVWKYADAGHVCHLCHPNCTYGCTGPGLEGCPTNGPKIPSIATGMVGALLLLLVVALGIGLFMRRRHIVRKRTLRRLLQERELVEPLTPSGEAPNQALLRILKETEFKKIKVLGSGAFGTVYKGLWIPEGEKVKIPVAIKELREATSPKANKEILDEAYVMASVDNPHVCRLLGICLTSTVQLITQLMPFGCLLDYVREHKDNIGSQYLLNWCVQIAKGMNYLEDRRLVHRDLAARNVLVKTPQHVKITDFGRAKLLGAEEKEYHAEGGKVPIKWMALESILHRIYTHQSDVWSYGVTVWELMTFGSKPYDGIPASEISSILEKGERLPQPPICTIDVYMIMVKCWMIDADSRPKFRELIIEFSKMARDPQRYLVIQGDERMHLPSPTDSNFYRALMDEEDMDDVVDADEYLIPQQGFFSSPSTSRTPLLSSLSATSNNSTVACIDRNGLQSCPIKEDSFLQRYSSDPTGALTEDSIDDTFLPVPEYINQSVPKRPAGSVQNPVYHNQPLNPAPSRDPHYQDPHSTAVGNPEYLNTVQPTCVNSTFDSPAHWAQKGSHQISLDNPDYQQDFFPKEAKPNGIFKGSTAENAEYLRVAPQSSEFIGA
# Method in brief: as §1
# [3] = molecular target: T3, EGFR L858R/T790M (Homo sapiens, UniProt P00533, L858R/T790M); assay: Inhibition of EGFR L858R/T790M biochemical enzymatic activity (HTRF); settings: EGFR L858R-T790M, 1 mM ATP, 1 h, room temperature, read-out: IC50 (nM) @L858R-T790M
# T3 construct: purchased Carna Bio
# T3 sequence (P00533 25-1210 T790M/L858R): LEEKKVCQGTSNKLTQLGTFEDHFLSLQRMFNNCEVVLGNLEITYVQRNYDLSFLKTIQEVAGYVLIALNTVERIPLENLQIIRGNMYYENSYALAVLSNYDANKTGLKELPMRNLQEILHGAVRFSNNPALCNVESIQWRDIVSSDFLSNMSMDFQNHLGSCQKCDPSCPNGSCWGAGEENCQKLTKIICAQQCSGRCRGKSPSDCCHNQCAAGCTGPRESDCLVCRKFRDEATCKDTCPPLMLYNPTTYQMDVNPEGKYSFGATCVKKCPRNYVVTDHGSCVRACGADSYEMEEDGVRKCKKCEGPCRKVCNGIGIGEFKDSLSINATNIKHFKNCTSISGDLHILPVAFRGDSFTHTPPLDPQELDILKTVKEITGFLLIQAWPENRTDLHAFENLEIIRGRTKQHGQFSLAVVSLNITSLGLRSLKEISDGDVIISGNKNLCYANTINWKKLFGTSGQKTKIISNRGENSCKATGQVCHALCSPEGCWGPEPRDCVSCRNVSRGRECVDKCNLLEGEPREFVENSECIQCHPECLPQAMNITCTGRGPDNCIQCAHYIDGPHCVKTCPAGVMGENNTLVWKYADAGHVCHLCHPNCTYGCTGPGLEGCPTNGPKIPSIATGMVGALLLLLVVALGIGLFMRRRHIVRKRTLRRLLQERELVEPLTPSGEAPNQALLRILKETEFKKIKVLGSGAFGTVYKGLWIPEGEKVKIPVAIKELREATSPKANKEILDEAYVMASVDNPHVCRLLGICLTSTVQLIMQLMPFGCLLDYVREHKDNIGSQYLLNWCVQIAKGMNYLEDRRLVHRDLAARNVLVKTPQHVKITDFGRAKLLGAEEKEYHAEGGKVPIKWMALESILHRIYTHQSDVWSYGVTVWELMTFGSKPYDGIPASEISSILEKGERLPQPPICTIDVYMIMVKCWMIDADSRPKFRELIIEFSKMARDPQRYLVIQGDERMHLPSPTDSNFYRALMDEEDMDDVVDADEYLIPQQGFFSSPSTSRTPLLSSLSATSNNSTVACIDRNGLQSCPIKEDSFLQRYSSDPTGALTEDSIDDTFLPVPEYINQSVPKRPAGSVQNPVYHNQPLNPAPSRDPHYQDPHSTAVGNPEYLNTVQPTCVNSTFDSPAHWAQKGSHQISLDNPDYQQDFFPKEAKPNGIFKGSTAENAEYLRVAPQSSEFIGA
# Method in brief: as §1
# [4] = molecular target: T4, EGFR Exon19Del (Homo sapiens, UniProt P00533, DEL746-750); assay: Inhibition of EGFR Exon19Del biochemical enzymatic activity (HTRF); settings: EGFR Del19, 1 mM ATP, 1 h, room temperature, read-out: IC50 @Del19
# T4 construct: purchased Carna Bio
# Method in brief: as §1
# [5] = molecular target: T5, EGFR Exon19Del/T790M (Homo sapiens, UniProt P00533, DEL746-750/T790M); assay: Inhibition of EGFR Exon19Del/T790M biochemical enzymatic activity (HTRF); settings: EGFR Del19-T790M, 1 mM ATP, 1 h, room temperature, read-out: IC50 (nM) @Del19-T790M
# T5 construct: purchased Carna Bio
# Method in brief: as §1
# [6] = molecular target: T6, EGFR[T790M/C797S/L858R] (Homo sapiens, UniProt P00533, C797S/L858R/T790M); assay: Inhibition of EGFR[T790M/C797S/L858R] biochemical enzymatic activity (HTRF); settings: EGFR T790M-C797S-L858R, 1 mM ATP, 1 h, room temperature, read-out: IC50 (nM) @T790M- C797S - L858R
# T6 construct: purchased Carna Bio
# Method in brief: as §1
# [7] = molecular target: T7, EGFR[T790M/C797S/d746-750] (Homo sapiens, UniProt P00533, C797S/DEL746-750/T790M); assay: Inhibition of EGFR[T790M/C797S/d746-750] biochemical enzymatic activity (HTRF); settings: EGFR T790M-C797S-Del19, 1 mM ATP, 1 h, room temperature, read-out: IC50 (nM) @T790M - C797S - Del19
# T7 construct: purchased Carna Bio
# T7 sequence (P00533 with tags, fused parts or gaps DEL746-750/T790M/C797S limits assumed): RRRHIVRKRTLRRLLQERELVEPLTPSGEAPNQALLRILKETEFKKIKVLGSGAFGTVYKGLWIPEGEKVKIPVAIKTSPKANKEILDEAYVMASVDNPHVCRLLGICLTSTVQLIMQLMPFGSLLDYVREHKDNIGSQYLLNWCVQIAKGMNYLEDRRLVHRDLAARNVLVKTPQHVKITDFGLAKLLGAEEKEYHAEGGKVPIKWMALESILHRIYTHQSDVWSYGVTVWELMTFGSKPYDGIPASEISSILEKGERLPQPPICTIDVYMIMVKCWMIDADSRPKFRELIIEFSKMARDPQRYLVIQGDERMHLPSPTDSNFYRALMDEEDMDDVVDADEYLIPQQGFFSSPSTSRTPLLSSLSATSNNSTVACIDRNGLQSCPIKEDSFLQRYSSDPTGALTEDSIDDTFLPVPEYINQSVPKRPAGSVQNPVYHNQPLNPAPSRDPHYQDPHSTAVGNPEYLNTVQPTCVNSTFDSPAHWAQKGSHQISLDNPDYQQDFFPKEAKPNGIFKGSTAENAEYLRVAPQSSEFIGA
# Method in brief: as §1
# [8] = molecular target: T8, EGFR (d746-750 C797S) (Homo sapiens, UniProt P00533, C797S/DEL746-750); assay: Inhibition of EGFR (d746-750 C797S) biochemical enzymatic activity (HTRF); settings: EGFR Del19-C797S, 1 mM ATP, 1 h, room temperature, read-out: IC50 (nM) @Del19-C797S
# T8 construct: purchased signalchem
# T8 sequence (P00533 with tags, fused parts or gaps DEL746-750/C797S limits assumed): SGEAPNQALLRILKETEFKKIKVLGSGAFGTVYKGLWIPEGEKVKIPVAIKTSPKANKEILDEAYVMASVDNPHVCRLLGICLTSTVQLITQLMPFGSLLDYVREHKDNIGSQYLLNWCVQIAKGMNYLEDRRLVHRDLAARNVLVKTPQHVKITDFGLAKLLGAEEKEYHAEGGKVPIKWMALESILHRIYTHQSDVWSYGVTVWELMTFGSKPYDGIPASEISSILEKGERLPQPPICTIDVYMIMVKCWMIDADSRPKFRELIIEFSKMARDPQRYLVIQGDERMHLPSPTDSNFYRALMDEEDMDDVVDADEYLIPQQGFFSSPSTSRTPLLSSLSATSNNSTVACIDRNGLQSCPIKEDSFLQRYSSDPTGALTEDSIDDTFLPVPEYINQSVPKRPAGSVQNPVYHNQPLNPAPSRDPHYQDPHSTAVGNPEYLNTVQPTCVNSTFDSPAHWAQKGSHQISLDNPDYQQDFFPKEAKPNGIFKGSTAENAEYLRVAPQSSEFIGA
# Method in brief: as §1
# [9] = molecular target: T9, EGFR (C797S L858R) (Homo sapiens, UniProt P00533, C797S/L858R); assay: Inhibition of EGFR (C797S L858R) biochemical enzymatic activity (HTRF); settings: EGFR L858-C797S, 1 mM ATP, 1 h, room temperature, read-out: IC50 (nM) @L858-C797S
# T9 construct: purchased signalchem
# T9 sequence (P00533 25-1210 C797S/L858R): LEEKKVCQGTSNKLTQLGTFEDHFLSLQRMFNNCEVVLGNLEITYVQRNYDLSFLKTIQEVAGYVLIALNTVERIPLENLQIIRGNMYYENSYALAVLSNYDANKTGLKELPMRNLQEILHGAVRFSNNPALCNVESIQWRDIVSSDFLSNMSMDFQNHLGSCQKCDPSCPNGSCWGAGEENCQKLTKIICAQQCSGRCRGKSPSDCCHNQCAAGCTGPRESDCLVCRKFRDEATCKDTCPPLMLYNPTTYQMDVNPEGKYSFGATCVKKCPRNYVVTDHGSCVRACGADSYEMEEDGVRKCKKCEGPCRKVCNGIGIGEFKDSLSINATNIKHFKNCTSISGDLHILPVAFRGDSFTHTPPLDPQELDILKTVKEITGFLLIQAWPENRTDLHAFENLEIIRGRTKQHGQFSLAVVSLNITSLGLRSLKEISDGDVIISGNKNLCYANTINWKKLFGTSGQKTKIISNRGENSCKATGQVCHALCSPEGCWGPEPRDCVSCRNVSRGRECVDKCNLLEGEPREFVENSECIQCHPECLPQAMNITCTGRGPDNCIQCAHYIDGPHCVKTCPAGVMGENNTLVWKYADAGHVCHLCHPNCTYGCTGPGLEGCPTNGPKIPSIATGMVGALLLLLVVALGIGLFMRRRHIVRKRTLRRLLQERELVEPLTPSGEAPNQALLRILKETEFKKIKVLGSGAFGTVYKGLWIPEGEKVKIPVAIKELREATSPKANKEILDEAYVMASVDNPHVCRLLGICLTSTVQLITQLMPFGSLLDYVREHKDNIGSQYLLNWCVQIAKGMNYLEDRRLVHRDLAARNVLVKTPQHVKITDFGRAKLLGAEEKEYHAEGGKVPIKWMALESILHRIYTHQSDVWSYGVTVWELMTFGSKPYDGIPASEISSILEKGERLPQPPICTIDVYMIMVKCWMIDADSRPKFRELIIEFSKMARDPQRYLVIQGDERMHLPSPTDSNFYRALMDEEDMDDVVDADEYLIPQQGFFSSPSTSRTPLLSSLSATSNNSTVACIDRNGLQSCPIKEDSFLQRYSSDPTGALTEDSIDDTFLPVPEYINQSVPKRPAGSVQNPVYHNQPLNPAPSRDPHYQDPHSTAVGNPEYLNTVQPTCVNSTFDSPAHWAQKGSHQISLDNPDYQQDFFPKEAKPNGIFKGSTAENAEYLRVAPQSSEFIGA
# Method in brief: as §1
# [10] = system: Ba/F3 cells expressing EGFR mutations; assay: Cell proliferation assay, Ba/F3 cells expressing EGFR mutations (CellTiter-Glo, 72 hours); format: cell-based; settings: CellTiter-Glo
# Method in brief: (§2)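 Seed Ba/F3 at 5000 cells/well and PC-9 at 500 cells/well (10% FBS RPMI1640); incubate overnight; add compound dilution series; read a G0 plate; incubate; read G3; GI50 from best-fit curve.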
# [11] = system: PC-9; assay: Cell proliferation assay, PC-9 cells (CellTiter-Glo, 72 hours); format: cell-based; settings: PC9 cells, CellTiter-Glo, read-out: PC9 GI50
# Method in brief: as §2
# [12] = system: A-431; assay: Cell proliferation GI50, A-431 cells (Table 6); format: cell-based
# Protocol: [Worded in the source for another cell line; this cell line is reported under the same test.] Ba/F3 cells expressing EGFR mutations were seeded in 384-well plates at 5000 cells/well in RPMI1640 medium containing […]. PC-9 at 500 cells/well was seeded into 384-well plates in RPMI1640 medium with 10% FBS. After overnight incubation, the assay plates were dosed with compounds at a series of concentrations. Alongside dosing the assay plates, the day 0 plate was processed using CellTiter-Glo® Luminescent Cell Viability Assay (Promega) to measure the number of viable cells (G0). The assay plates were further incubated for 72 hours and the number of viable cells (G3) was measured. The percentage of proliferation was calculated as: […]=100×(G3 value of sample well−G0 value)/(G3 value of DMSO control−G0 value). The concentration of compound producing 50% proliferation inhibition (GI50) was further calculated in best-fit curves using XLFit software. N/A=not available.
# [13] = Mus musculus, BaF3, 72 h, BaF3 cells, EGFR DEL19-C797S, read-out: DEL19-C797S/BaF3 GI50
# [14] = Mus musculus, BaF3, 72 h, BaF3 cells, EGFR DEL19-T790-C797S, read-out: DEL19-T790-C797S/BaF3 GI50
# [15] = Mus musculus, BaF3, 72 h, BaF3 cells, EGFR L858R, read-out: L858R/BaF3 GI50
# [16] = Mus musculus, BaF3, 72 h, BaF3 cells, EGFR L858R-C797S, read-out: L858R-C797S/BaF3 GI50
# [17] = Mus musculus, BaF3, 72 h, BaF3 cells, EGFR L858R-T790-C797S, read-out: L858R-T790-C797S/BaF3 GI50
# [18] = Mus musculus, BaF3, 72 h, BaF3 cells, EGFR L858R-T790M, read-out: L858R-T790M/BaF3 GI50
# [19] = Mus musculus, BaF3, 72 h, EGFR DEL19-T790M, read-out: DEL19-T790M GI50
# [20] = Homo sapiens, A-431, A-431 cells
# [21] = BaF3 cells, EGFR DEL19-C797S, read-out: DEL19-C797S/BaF3 GI50
# [22] = BaF3 cells, EGFR DEL19-T790-C797S, read-out: DEL19-T790-C797S/BaF3 GI50
# [23] = BaF3 cells, EGFR L858R, read-out: L858R/BaF3 GI50
# [24] = BaF3 cells, EGFR L858R-C797S, read-out: L858R-C797S/BaF3 GI50
# [25] = BaF3 cells, EGFR L858R-T790-C797S, read-out: L858R-T790-C797S/BaF3 GI50
# [26] = BaF3 cells, EGFR L858R-T790M, read-out: L858R-T790M/BaF3 GI50
# [27] = EGFR DEL19-T790M, read-out: DEL19-T790M GI50
IC50 [1] [nM],IC50 [2] [nM],IC50 [3] [nM],IC50 [4] [nM],IC50 [5] [nM],IC50 [6] [nM],IC50 [7] [nM],IC50 [8] [nM],IC50 [9] [nM],"GI50 [10, 13] [nM]","GI50 [10, 14] [nM]","GI50 [10, 15] [nM]","GI50 [10, 16] [nM]","GI50 [10, 17] [nM]","GI50 [10, 18] [nM]","GI50 [10, 19] [nM]","GI50 ([11]; Homo sapiens, PC-9, 72 h) [nM]","GI50 [12, 20] [nM]","GI50 [10, 21] [nM]","GI50 [10, 22] [nM]",SMILES,other results
> 5000,168,65,7.4,1.8,20,1.3,5.4,68,2.7,7,26,17,10,72,18,32,1680,–,–,"C[C@@H]1CCCOc2c(cnn2C)-c2cc(cn(C)c2=O)C(=O)Nc2nc3ccc4c(c3n2C1)CCN(C)C4 [Example A103, (11R)-5,11,18,30-tetramethyl-7-oxa-4,5,13,18,24,26,30-heptaazahexacyclo[26.3.1.0^{2,6}.0^{13,25}.0^{14,23}.0^{15,20}]dotriaconta-1(32),2(6),3,14,20,22,24,28-octaene-27,31-dione]",–
281,40,6.5,3.4,1.4,2.3,1.2,1.7,13,0.7,3.3,3.2,3.8,2.5,10,5.5,4.3,166,–,–,C[C@@H]1CCCOc2c(cnn2C)-c2cc(cn(C)c2=O)C(=O)Nc2nc3ccc(N4CC(N(C)C)C4)cc3n2C1 [Example A37],–
3550,197,120,81,47,121,26,53,120,22,170,6.1,21,27,60,114,68,3570,–,–,"Cn1ncc2c1OCCN(CC(F)(F)F)CCn1c(nc3ccccc31)NC(=O)c1cc-2c(=O)n(C)c1 [Example A1, 5,26-Dimethyl-10-(2,2,2-trifluoroethyl)-7-oxa-4,5,10,13,20,22,26-heptaazapentacyclo[22.3.1.0^{2,6}.0^{13,21}.0^{14,19}]octacosa-1(28),2(6),3,14,16,18,20,24-octaene-23,27-dione]",–
–,–,–,–,–,–,–,–,–,2.3,3.6,13,11,13,24,15,17,719,–,–,C[C@@H]1CCCOc2c(cnn2C)-c2cc(cn(C)c2=O)C(=O)Nc2nc3ccc(N4CC5CN(C)CC5C4)cc3n2C1 (some centres unmarked) [Example A30],–

# The next lines start with the compound.
SMILES,IC50 [1] [nM],IC50 [2] [nM],IC50 [3] [nM],IC50 [4] [nM],IC50 [5] [nM],IC50 [6] [nM],IC50 [7] [nM],IC50 [8] [nM],IC50 [9] [nM],"GI50 [10, 13] [nM]","GI50 [10, 14] [nM]","GI50 [10, 15] [nM]","GI50 [10, 16] [nM]","GI50 [10, 17] [nM]","GI50 [10, 18] [nM]","GI50 [10, 19] [nM]","GI50 ([11]; Homo sapiens, PC-9, 72 h) [nM]","GI50 [12, 20] [nM]","GI50 [10, 21] [nM]","GI50 [10, 22] [nM]",other results
"Cn1ncc2c1OCCN1CC3CCC(C3)(C1)n1c(nc3ccc(N4CCC(N5CC(F)C5)CC4)cc31)NC(=O)c1cc-2c(=O)n(C)c1 (single isomer, unassigned) [Example A87A]",> 5000,4480,> 5000,842,> 5000,> 5000,4000,995,> 5000,–,–,–,–,–,–,–,–,–,61,238,"GI50 [10, 23]: 178 nM; GI50 [10, 24]: 124 nM; GI50 [10, 25]: 233 nM; GI50 [10, 26]: 311 nM; GI50 [10, 27]: 192 nM; GI50 [11]: 452 nM; GI50 ([12]; A-431 cells): 382 nM"
"CN1CCN(c2ccc3c(c2)nc2n3C34CCC(CN(CCOc5c(cnn5C)-c5cc(cn(C)c5=O)C(=O)N2)C3)C4)CC1 (centres unmarked) [Example A60, 15,21-dimethyl-6-(4-methylpiperazin-1-yl)-23-oxa-2,9,11,15,20,21,26-heptaazaheptacyclo[24.4.1.1^{1,28}.1^{13,17}.0^{2,10}.0^{3,8}.0^{18,22}]tritriaconta-3,5,7,9,13,17(33),18(22),19-octaene-12,16-dione]",–,917,240,23,8.6,157,9.4,18,619,–,–,–,–,–,–,–,–,–,19,40,"GI50 [10, 23]: 87 nM; GI50 [10, 24]: 120 nM; GI50 [10, 25]: 86 nM; GI50 [10, 26]: 457 nM; GI50 [10, 27]: 63 nM; GI50 [11]: 146 nM; GI50 ([12]; A-431 cells): 4110 nM"
"Cn1ncc2c1OCCN1CC3CCC(C3)(C1)n1c(nc3ccc(N4CCN(C5COC5)CC4)cc31)NC(=O)c1cc-2c(=O)n(C)c1 (single isomer, unassigned) [Example A71A]",–,–,–,–,–,–,–,–,–,–,–,–,–,–,–,–,–,–,286,579,"GI50 [10, 23]: 1760 nM; GI50 [10, 24]: 954 nM; GI50 [10, 25]: 762 nM; GI50 [10, 26]: 2410 nM; GI50 [10, 27]: 735 nM; GI50 [11]: 787 nM; GI50 ([12]; A-431 cells): 7860 nM"
"Cn1ncc2c1OCCN1CC3CCC(C3)(C1)n1c(nc3ccc(N4CCC(N5CC(F)C5)C4)cc31)NC(=O)c1cc-2c(=O)n(C)c1 (single isomer, unassigned) [Example A94A2, 5-[3-(3-Fluoroazetidin-1-yl)pyrrolidin-1-yl]-15,21-dimethyl-23-oxa-2,9,11,15,20,21,26-heptaazaheptacyclo[24.4.1.1^{1,28}.1^{13,17}.0^{2,10}.0^{3,8}.0^{18,22}]tritriaconta-3,5,7,9,13,17(33),18(22),19-octaene-12,16-dione]",–,–,–,–,–,–,–,–,–,–,–,–,–,–,–,–,–,–,1090,3940,"GI50 [10, 23]: 715 nM; GI50 [10, 24]: 1480 nM; GI50 [10, 25]: 634 nM; GI50 [10, 26]: 2710 nM; GI50 [10, 27]: 2100 nM; GI50 [11]: 1940 nM; GI50 ([12]; A-431 cells): 1800 nM"
